The values that follow come from patent EP3102204B1 (The University Of Mississippi, priority 2014, dated 2015).

Read-outs that look alike come from different tables or passages of the source. Bounds are passed on as bounds.

Data set [1] concerns Male, Swiss Webster mice. In words: Expression of cocaine-induced sensitization. It counts as in vivo. The conditions noted are these: compound on Day 15 before cocaine 10 mg/kg i.p. As for the experimental part:
Male, Swiss Webster mice were acclimated as detailed above. For five consecutive days (Days 1-5), the mice were pretreated (i.p.) with saline, then challenged 15 min later with cocaine (10mg/kg, i.p.). The total locomotor activity (ambulatory, fine and rearing movements) of the mice was recorded for the next 30 min. A 10 day drug free period followed and on Day 15, the mice were administered saline (i.p.) or compound (0.1-20mg/kg), followed15 min later with cocaine (10mg/kg, i.p.). Locomotor activity was then recorded for the next 30 min.

In data set [2] the test system is Male, Swiss Webster mice. The experiment in a line: Cocaine-induced locomotor activity. In kind it is in vivo. The conditions noted are these: pretreatment i.p. 15 min before cocaine 20 mg/kg i.p. As for the experimental part:
Male, Swiss Webster mice were acclimated to the treatment room and then to the chambers of the automated activity monitoring system (San Diego Instruments, San Diego, CA). […] The total locomotor activity (ambulatory, fine and rearing movements) of the mice was recorded for the next 30 min as the number of disruptions made by them in the 16x16 photobeam grid of their testing chamber.

The next data set addresses T1, σ-2 (Rattus norvegicus, UniProt Q5U3Y7).
T1 construct: from tissue; host or cells: rat brain homogenate (membrane protein)
T1 sequence (Q5U3Y7 1-176): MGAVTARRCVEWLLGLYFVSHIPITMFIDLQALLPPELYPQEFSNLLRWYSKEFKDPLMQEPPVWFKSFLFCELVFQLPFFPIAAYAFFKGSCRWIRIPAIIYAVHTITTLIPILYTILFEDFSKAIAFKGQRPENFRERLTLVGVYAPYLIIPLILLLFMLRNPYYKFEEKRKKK
The experiment in a line: σ receptor assay: σ-2 binding with [3H]DTG plus (+)-pentazocine. The conditions noted are these: for Ki: rat brain homogenates.

For data set [3], the system named is Male, Swiss Webster mice. In words: Cocaine-induced convulsions. In kind it is in vivo. The conditions noted are these: pretreatment i.p. 15 min before cocaine 70 mg/kg i.p.
In data set [4] the test system is Male, Swiss Webster mice. In words: Development of cocaine-induced sensitization. It counts as in vivo. The conditions noted are these: pretreatment Days 1-5, cocaine 10 mg/kg i.p. As for the experimental part: Male, Swiss Webster mice were acclimated as detailed above. […] The total locomotor activity (ambulatory, fine and rearing movements) of the mice was recorded for the next 30 min as the number of disruptions made by them in the 16x16 photobeam grids of their testing chamber on each of the five days. A 10 day drug-free period followed. On Day 15, all of the mice were pre-administered (i.p.) saline followed by cocaine (10mg/kg, i.p.), and locomotor activity quantified for the next 30 min.

Data set [5] has as its target σ-1 receptors (Mus musculus, UniProt O55242). In words: Small-animal PET imaging in mice (brain). It counts as in vivo.
For data set [6] the following is noted: analytical reverse-phase HPLC.
Data set [7] deals with σ-1 receptor. In words: Cell uptake studies in transfected CHO cells. The conditions noted are these: at 120 min.
Experimental: Control CHO cells (transfected with a vector not containing the σ-1 receptor gene - to serve as a negative control) and CHO cells transfected with a vector containing σ-1 receptor cDNA (to serve as a positive control for σ-1 receptor expression in cells) were used for the uptake assays. […] The incubated cells were subsequently washed, lysed and counted for radioactivity. All collected data were normalized for amount of protein present in each well.
Cells CHO cells were grown in Ham's F-12 medium. For uptake studies CHO cells were transfected using Lipofectamine 2000 (Invitrogen, Carlsbad, CA, USA) and either pcDNA (empty vector, negative control) or σ-1 receptor gene (OPRS1, accession number NM_005866.2, origin, Rockville, MD, USA) following manufacturer's directions. […] Twenty-four hours later, CHO cells were transfected with either 0.8 µg pcDNA (empty vector, control), or 0.8 µg sigma-1 DNA. […] A portion of each lysate (250 µL) was transferred to a glass tube and activity was measured with a Cobra II γ counter (Packard-Perkin Elmer, Waltham, MA, USA). Protein content from each well was measured by Bradford assay. The same protocol was followed for (+)-[^3H]pentazocine, except the activity was measured with a liquid scintillation counter (Beckman Coulter LS 6500, Brea, CA, USA).
Data set [8] in a line: pKa by potentiometric titration. It counts as physicochemical. As for the experimental part: A solution of 0.01 M sodium hydroxide was prepared and the pH measured as 11.9. Similarly, 0.01 M hydrochloric acid solution was prepared and the pH measured as 2.07. […] To the same sample, 0.1 mL portions of hydrochloric acid were added and pH recorded until it became constant. A titration curve was then plotted as pH versus the volume of base/acid added.

The target in data set [9] is σ-1 receptors. The experiment in a line: In vitro radioligand binding assays of CM304 at sigma receptors. Also on record: species or system rat. As for the experimental part: Competition binding assays were performed as previously described. Briefly, radioligands were used to tag the targeted sites under standard conditions.
A short description of data set [10]: in vitro. In kind it is in vitro ADME. Details: dose or concentration left out as unconfirmed. The conditions noted are these: pH 7.4; mouse liver microsomes, NADPH-generating system, 37 °C. As for the experimental part:
The reaction was initiated by adding cofactors and quenched at designated time points (0, 5, 10, 15, 30, 45, 60 min) by the addition of an equal volume of ice-cold acetonitrile (ACN). […].
The basic incubation mixture consisted of 5 mM substrate, 1 mg/mL microsomal protein, 3 mM MgCl2, 1 mM NADP, 5 mM glucose-6-phosphate, 1 IU/mL glucose-6-phosphate dehydrogenase, 100 mM Tris HCl buffer (pH 7.4) in a final volume of 1 mL. The reaction was initiated by adding cofactors and quenched at designated time points (0, 5, 10, 15, 30, 45, 60 min) by addition of an equal volume of ice-cold ACN. The mixture was centrifuged at 3000 rpm for 10 min, and the supernatant was analyzed by UPLC/MS/MS.

The next data set deals with σ-1 (Rattus norvegicus, UniProt Q9R0C9). The experiment in a line: σ receptor assay: σ-1 binding with [3H](+)-pentazocine. The conditions noted are these: rat brain homogenates; CM table.
σ-1, sequence (Q9R0C9 whole entry): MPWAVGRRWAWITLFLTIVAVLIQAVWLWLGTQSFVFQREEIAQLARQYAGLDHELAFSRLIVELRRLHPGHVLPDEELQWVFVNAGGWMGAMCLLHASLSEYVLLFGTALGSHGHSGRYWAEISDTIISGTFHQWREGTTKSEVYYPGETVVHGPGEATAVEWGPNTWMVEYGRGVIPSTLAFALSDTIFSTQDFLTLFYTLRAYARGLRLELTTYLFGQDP
The nature of data set [11]: in vitro. In kind it is in vitro ADME, rat. As for the experimental part: Metabolic stability of AZ_66 (1µM) was performed in Ammonium acetate buffer (50mM, pH 7.4) with Rat liver microsomes (0.5mg) at 37 °C in 0.5ml of incubation mixture. The incubation mixture composed of Ammonium acetate buffer (50mM, pH 7.4), Magnesium chloride (3mM), a NADPH regenerating system consisting of NADP (1mM), glucose-6-phosphate (5mM), and glucose-6-phosphate dehydrogenase (1Unit/mL). The Substrate and microsomes were pre incubated at 37°C for 5 min before starting the reaction. The reactions were started by the addition of regenerating system and carried out at 37°C in a shaking water bath for 60min. The incubations were stopped by adding an equal volume of ice cold acetonitrile at predetermined time points (0, 5, 15, 30, 60 min). The samples were centrifuged for 10min at 4°C and the supernatant was injected into UPLC/MS/MS. Control incubation without NADPH was also performed and these served as 100% value. All microsomal incubations were conducted using the same lot of microsomes.
In vitro half-life and CLint: The percent of the parent compound remaining is plotted versus time. The slope of the line gives the rate constant k for the disappearance of parent compound, from which an in vitro t1/2 can be calculated. CLint can be calculated using the following formula CLint = k(min^−1) × ([V](L))/([P](mg)) = (L/mg×min) [formula] […]

The target of another data set is T2, dopamine D2 receptors (Rattus norvegicus, UniProt P61169).
T2 construct: from tissue; host or cells: rat brain homogenate
T2 sequence (P61169 whole entry): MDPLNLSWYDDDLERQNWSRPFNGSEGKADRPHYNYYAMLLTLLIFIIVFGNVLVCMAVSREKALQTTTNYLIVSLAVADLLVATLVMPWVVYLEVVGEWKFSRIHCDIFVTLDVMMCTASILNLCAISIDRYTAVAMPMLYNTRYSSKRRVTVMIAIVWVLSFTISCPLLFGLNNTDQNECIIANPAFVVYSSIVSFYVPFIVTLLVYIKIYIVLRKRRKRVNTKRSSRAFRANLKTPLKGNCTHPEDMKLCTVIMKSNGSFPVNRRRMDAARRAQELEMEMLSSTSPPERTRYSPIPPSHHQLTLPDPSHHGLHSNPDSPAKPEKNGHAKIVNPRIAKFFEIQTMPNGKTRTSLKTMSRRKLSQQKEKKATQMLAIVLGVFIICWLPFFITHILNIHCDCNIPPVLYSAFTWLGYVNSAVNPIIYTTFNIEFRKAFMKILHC
The experiment in a line: Non-σ competition binding assay, [3H](-)-sulpiride. The conditions noted are these: rat brain homogenates. As for the experimental part: (§1) Compounds were tested at various non-σ target sites to evaluate selectivity because cocaine interacts with these sites (dopamine, serotonin and norepinephrine transporters) or historic "sigma" ligands interact with them (opioid, NMDA, dopamine D2, 5-HT2 receptors). The compounds were tested in competition binding assays using rat brain homogenates as previously published. […] The results were reported as Ki in nM.

For another data set, the target named is 5-HT2 receptors. The experiment in a line: Non-σ competition binding assay, [3H]ketanserin. The conditions noted are these: rat brain homogenates. As for the experimental part: as §1
The target of a further data set is NMDA receptors. In words: Non-σ competition binding assay, [3H]TCP. The conditions noted are these: rat brain homogenates. As for the experimental part: as §1
The target of data set [12] is norepinephrine transporters. In words: Non-σ competition binding assay, [3H]nisoxetine. The conditions noted are these: rat brain homogenates; read-out: NET Ki. As for the experimental part:
as §1

The test system of data set [13] is Male, Swiss Webster mice. In words: Methamphetamine-induced locomotor activity. In kind it is in vivo. The conditions noted are these: pretreatment i.p. 15 min before methamphetamine 1 mg/kg i.p. As for the experimental part:
Male, Swiss Webster mice were acclimated as detailed above. […] The total locomotor activity (ambulatory, fine and rearing movements) of the mice was recorded for the next 30 min as the number of disruptions made by them in the 16x16 photobeam grids surrounding their testing chambers.

Another data set concerns the target dopamine transporters. The experiment in a line: Non-σ competition binding assay, [3H]WIN35,428. The conditions noted are these: rat brain homogenates; read-out: DAT Ki. As for the experimental part:
as §1

The target in a further data set is serotonin transporters. The experiment in a line: Non-σ competition binding assay, [3H]paroxetine. The conditions noted are these: rat brain homogenates; read-out: SERT Ki. As for the experimental part:
as §1

In data set [14] the test system is Male, Swiss Webster mice. The experiment in a line: Methamphetamine-induced dopamine depletions. It counts as in vivo. The conditions noted are these: methamphetamine 5 mg/kg x 4 at 2 hr intervals; striatal dopamine one week later. As for the experimental part:
Male, Swiss Webster mice were injected (i.p.) with saline or compound (0-20mg/kg), followed 15 min later with either saline (- METH) or methamphetamine (5mg/kg) at 2hr intervals, a total of four times. Striatal dopamine levels were measured one week later.

Data set [15] deals with σ-1 receptor. The conditions noted are these: cited from earlier work.

σ-1 receptors (Mus musculus, UniProt O55242), sequence (O55242 whole entry): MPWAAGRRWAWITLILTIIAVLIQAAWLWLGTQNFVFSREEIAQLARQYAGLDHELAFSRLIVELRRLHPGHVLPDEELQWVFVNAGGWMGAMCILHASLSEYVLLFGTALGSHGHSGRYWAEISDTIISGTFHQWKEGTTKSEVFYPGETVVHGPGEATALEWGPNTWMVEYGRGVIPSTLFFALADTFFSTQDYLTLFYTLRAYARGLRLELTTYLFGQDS
Experimental for σ-2: Compounds were evaluated for σ -1 and σ -2 binding in rat brain homogenates. […] The assays were terminated with ice-cold 10 mM Tris-HCl, pH 8.0, followed by two washes through glass fiber filters that were pre-soaked for at least 30 min in 0.5% polyethyleneimine.

As to `CC(=O)c1ccc2c(c1)oc(=O)n2CCCCN1CCN(c2ccc(F)cc2)CC1` [SN-79], in the data set on Male, Swiss Webster mice [1], the “expression of cocaine-induced sensitization (behavioral sensitization)” value was “attenuates the expression of cocaine-induced sensitization”. Also, the “attenuation of cocaine-induced locomotor activity” value in the data set on Male, Swiss Webster mice [2] is on record as “significant attenuation”. Besides, on σ-2 (SN table, read-out: Ki (nM) σ2), the Ki came to 6.06 nM. Moreover, in the data set with Male, Swiss Webster mice [3], the “attenuation of cocaine-induced convulsions” value is reported as “significant attenuation”. In addition, the “development of cocaine-induced sensitization” value in the data set with Male, Swiss Webster mice [4] is “attenuates the development of cocaine-induced sensitization”.

Take `O=c1oc2ccccc2n1CCCCN1CCN(C2CCCCC2)CC1` [CM 121]: the “preference (selectivity) for the σ-2 subtype” value on σ-2 (σ-2 over σ-1) is on record as “six fold”.

In the case of `O=c1sc2cc(CCC[18F])ccc2n1CCN1CCCCCC1` [[^18F]FTC-146, 6-(3-fluoropropyl) -3-(2-(azapan-1-yl)ethyl) benzo [d] thiazol-2 (3H) -one], on σ-1 receptors [5] (at 60 min, pre-treatment with CM304 1 mg/kg 10 minutes prior to radioligand), the “reduction of [18F]FTC-146 binding in the brain” value came to 83%. For the same compound, the tissue uptake on σ-1 receptors [5] (mouse, brain, iv, read-out: maximum uptake in brain) is roughly 17 %ID/g. Further, the “stability of formulated version in saline/ethanol (9:1)” value in data set [6] is recorded as “at least 5.5 hours”. Besides, the “uptake in cells transfected with σ-1 receptor cDNA versus control CHO cells” value in the data set on σ-1 receptor [7] came out at 4 fold.

Take `Cl.O=c1sc2cc(CCCF)ccc2n1CCN1CCCCCC1` [CM304, 3-(2-(azepan-1-yl)ethyl)-6-(3-fluoropropyl)benzo[d]thiazol-2(3H)-one hydrochloride]: in data set [8], the “experimental pKa” value stood at 10.4. Further, the “attenuation of cocaine-induced convulsions” value in the data set with Male, Swiss Webster mice [3] is reported as “significantly attenuated”. The same compound gave a Ki on σ-1 receptors [9] of 0.0025 nM. Also, in “in vitro [10]”, the half-life is 4.2 min.

Regarding `Fc1ccc(-c2cn(CCCCN3CCN(c4ccc(F)cc4)CC3)c3ccccc23)cc1` [CM 350], on σ-1, the inhibitory constant (Ki) worked out at 1200 ± 73.9 nM.

As to `CC(CCCn1c(=O)sc2cc(F)ccc21)N1CCN(C2CCCCC2)CC1` (stereo not shown) [AZ_66], the “loss of substrate in the absence of cofactor” value in the data set “in vitro [11]” (control incubation without NADPH) is “no loss of substrate”. In addition, in “in vitro [11]” (rat, microsomes, pH 7.4, by 60 min, read-out: added substrate metabolized by microsomes), the metabolised at 1 h, 1 µM is roughly 25%.

In the case of `Fc1ccc(-c2cn(CCCCN3CCN(C4CCCCC4)CC3)c3ccccc23)cc1` [CM 349], the Ki at σ-1 turned out to be 90.9 ± 12.3 nM; on σ-2 (CM table, read-out: Ki (nM) […]2), 22.6 ± 1.13 nM.

For `O=c1sc2ccccc2n1CCCCN1CCN(C2CCCCC2)CC1` [CM 145], on σ-2 (CM table, read-out: Ki (nM) […]2), the inhibition constant (Ki) is 0.39 ± 0.06 nM.

With `S=c1sc2ccccc2n1CCCCN1CCN(C2CCCCC2)CC1` [CM156], the inhibition constant Ki on dopamine D2 receptors was 1041 ± 9 nM; at 5-HT2 receptors it was 1330 ± 159 nM; on NMDA receptors it was greater than 10000 nM; in data set [12], greater than 10000 nM; on dopamine transporters, 1175 ± 10 nM; on serotonin transporters it was 1400 ± 152 nM. In addition, the “expression of cocaine-induced sensitization (behavioral sensitization)” value in the data set with Male, Swiss Webster mice [1] is listed as “significant attenuation”. Besides, the “attenuation of cocaine-induced locomotor activity” value with Male, Swiss Webster mice [2] is on record as “significant attenuation”. For the same compound, the “locomotor stimulant effects of methamphetamine” value in the data set on Male, Swiss Webster mice [13] was “attenuated”. For the same compound, the “attenuation of cocaine-induced convulsions” value with Male, Swiss Webster mice [3] is recorded as “significant attenuation”. In the data set with Male, Swiss Webster mice [14], the “neurotoxic effects resulting from methamphetamine exposures (dopamine depletions)” value is listed as “attenuated”.

Regarding `[17F]CCC1OC2(CCN(Cc3ccccc3)CC2)c2ccccc21` (stereo not shown) [[^18F]fluspidine], the “brain level relative to its maximum” value with σ-1 receptor [15] (at 60 minutes post injection) is 81%. For the same compound, the “reduction in brain uptake” value in the data set with σ-1 receptor [15] (biodistribution in mice, over 2 hours) is 40%. In addition, in the data set on σ-1 receptor [15] (post injection), the “time of maximum uptake in the brain” value was 30 min.

For `CC(C)=CCN1CC[C@]2(C)c3cc(O)ccc3C[C@H]1[C@H]2C` [(+)-[^3H] pentazocine, reference compound], the “uptake in cells transfected with σ-1 receptor cDNA versus control CHO cells” value in the data set on σ-1 receptor [7] worked out at 3.6 fold.

Consider `Cn1c(=O)n(CCCCN2CCN(C3CCCCC3)CC2)c2ccccc21` [CM 396], for which, at σ-2 (CM table, read-out: Ki (nM) […]2), the Ki was determined as 2.57 ± 0.47 nM.

Turning to `c1ccc2c(c1)ccn2CCCCN1CCN(C2CCCCC2)CC1` [CM 341], on σ-2 (CM table, read-out: Ki (nM) […]2), the Ki turned out to be 1.9 ± 0.16 nM.
